The record followed here is ChEMBL document CHEMBL5131417, “Metabolic installation of macrophage-recruiting glycan ligand on tumor cell surface for in vivo tumor suppression” (Bioorg Med Chem Lett, 2022).

Series [1] deals with B16-F10. The series is described as follows: Activation of binding of GFP-expressed mouse B16-F10 cells with mouse RAW264.7 cells at 100 uM incubated for 24 hrs by fluorescence microscopy. In kind it is functional, cell-based.
Another series relates to U-87 MG. As to the kind of experiment: Drug distribution in plasma membrane of human U87 cells at 100 uM incubated for 24 hrs by confocal microscopy. It counts as ADME, cell-based. As to conditions: u-87mg atcc.
Series [2] is described as follows: Drug distribution in plasma membrane of mouse B16-F10 cells at 100 uM incubated for 24 hrs by confocal microscopy. In kind it is ADME, cell membranes. As to conditions: b16-f10, 24 h.
Series [3] deals with B16-F10. The series is described as follows: Antitumor activity against B16-F10 cells implanted in C57BL/6 mouse assessed as reduction in tumor volume at 30 mg/kg, iv dosed on 2nd, 4th, 6th, 8th, 10th, 12th and 14th day post tumor transplantation. It counts as functional. On the set-up: scale not given: the % may be the effect or the level left. The following applies: time 14 day.

Series [4] relates to B16-F10. The series is described as follows: Antitumor activity against B16-F10 cells implanted in C57BL/6 mouse assessed as reduction in size and number of metastasis in lung at 30 mg/kg, iv dosed every day after tumor transplantation. It counts as functional, organism-based.
Series [5] is described as follows: Toxicity in mouse B16-F10 cells assessed as effect on cell viability at 0.1 to 100 uM incubated for 24 hrs. In kind it is cell-based. As to conditions: b16-f10, 24 h, dose 0.1-100 µM.
Series [6] is described as follows: Toxicity in C57BL/6 mouse assessed as induction of abnormal death at 300 mg/kg, iv measured up to 100 days after injection. The following applies: in vivo, 2400 h, time < 100 day. It counts as organism-based.

Activity calls are given as the source filed them. The rule behind the calls is not given here.

As to `CC(=O)N[C@H]1[C@H]([C@H](O)[C@H](O)CNC(=O)c2cc3c(s2)-c2ccccc2OC3)O[C@@](O)(C(=O)O)C[C@@H]1O`, the result with B16-F10 [1] and with B16-F10 [4] was Active. For the same compound, the Drug uptake entry (in the series with U-87 MG; in series [2]) was “Active” each time. The figures for the Activity (in the series on B16-F10 [3]; in series [5]; in series [6]) were 60%, “Non-Toxic” and “Non-Toxic”, respectively.
